The source of these data is patent US4883821A, “Agent for treating hyperuricemia” (Eisai Co., Ltd., priority 1988, dated 1989).

For series [1] the following is noted: clinical use, prior art; cited from earlier work.
The test system of series [2] is Sic-SD rats. Put plainly: acute toxicity test in rats. It counts as in vivo. The settings on record: oral, intraperitoneal and subcutaneous. How it is done:
(§1) The acute toxicity test was carried out by oral, intraperitoneal and subcutaneous administration to 7- to 8-week old Sic-SD rats and Slc:ICr mice. The case of death was observed within 5 days from the start of the administration.

A short description of series [3]: acute toxicity test in rats. The note with it: rat, in vivo. It counts as in vivo. How it is done:
as §1

For series [4] the following is noted: disclosed in Japanese Patent Laid-Open No. 210050/1986; cited from earlier work.
Series [5] can be described thus: solubility.
In series [6] the test system is uric acid level in serum. In words: phase I clinical test: uric acid level in serum of healthy adult men (enzymatic method). Format: in vivo. How it is done: Capsules containing 300 mg of the compound of the present invention, N-{3-[4"-(2",6"-dimethylheptyl)phenyl]butanoyl}ethanolamine, were administered to 5 healthy adult men for 7 days three times per day after meals. For comparison, a placebo was administered to two other healthy adult men. Thus, the phase I clinical test was conducted.
[…] With respect to the measured values, the significance test was conducted between the group to which the compound of the present invention was administered and the group to which the placebo was administered.
In the above table, each value indicates the uric acid level (mg/dl) in serum, and A through G in the column of "Healthy man" represent the adult men to whom the medicine was administered.

A short description of series [7]: acute toxicity test in mice. The settings on record: mouse, in vivo. How it is done:
as §1

Values joined by “and” are separate entries in the source; they are usually repeats but may differ in a detail not shown here. Equal values may be shown once.

With `Oc1ncnc2[nH]ncc12` [allopurinol], the adverse effects entry in series [1] was “causes efflorescence, gastrointestinal disorders, liver troubles and hematogenic organ troubles”.

For orientation: LD50 means the dose at which mortality reaches 50%. `CC(C)CCCC(C)Cc1ccc(C(C)CC(=O)NCCO)cc1` (stereo not drawn) [compound of the present invention, N-{3-[4'-(2",6"-dimethylheptyl)phenyl]butanoyl}ethanolamine]: in series [2], the “time of death from the start of the administration” value is reported as ≤ 5 days. The LD50 in series [3] (ip, female, intraperitoneal) was 572 mg/kg; in series [3] (ip, male, intraperitoneal), 1340 mg/kg; in series [3] (po, female), 1910 mg/kg; in series [3] (po, male), 4260 mg/kg; in series [3] (sc, female, subcutaneous), 6350 mg/kg; in series [3] (sc, male, subcutaneous), > 8000 mg/kg. In addition, the LD50 in series [7] (ip, female, intraperitoneal) was 737 mg/kg; in series [7] (ip, male, intraperitoneal), 792 mg/kg; in series [7] (po, female), 4580 mg/kg; in series [7] (po, male) it was > 2560 mg/kg; in series [7] (sc, female, subcutaneous), > 5000 mg/kg; in series [7] (sc, male, subcutaneous) it was > 5000 mg/kg. Besides, the anticholesterolemic action entry in series [4] was “has an anticholesterolemic action”. Moreover, in series [5] (anhydrous ethanol, ethyl acetate, ethanol, chloroform, acetonitrile and n-hexane), the “solubility in organic solvents” value is “Highly soluble”. Also, the solubility in water result in series [5] (water) was “substantially insoluble”. The “accumulation of the medicinal effect” value in series [6] (after stop of administration) was “not observed”. In addition, in series [6] (after stop of administration), the “uric acid level in serum when administration was stopped” value is recorded as “promptly elevated to the value before the start of the administration”. The “average uric acid level in serum, 1st day” value in series [6] (average of men A-E, 1st day, before administration, placebo average 6.0) was 5.8 mg/dL. Besides, in series [6] (average of men A-E, 4th day, 300 mg three times per day, marked *, placebo average 5.7), the “average uric acid level in serum, 4th day” value came to 3.1 mg/dL. For the same compound, the “average uric acid level in serum, 6th day” value in series [6] (average of men A-E, 6th day, 300 mg three times per day, marked *, placebo average 5.7) was found to be 2.7 mg/dL. Further, the “average uric acid level in serum, 8th day” value in series [6] (average of men A-E, 8th day, 300 mg three times per day for 7 days, marked *, placebo average 5.8) was determined as 3.2 mg/dL. In addition, in series [6] (average of men A-E, 11th day, after 7 days of administration, placebo average 7.1), the “average uric acid level in serum, 11th day” value was 5.5 mg/dL. Moreover, in series [6] (fourth day), the “lowering in the uric acid level in serum” value was “significant lowering in the uric acid level in serum was observed”. The “uric acid level in serum, 1st day” value in series [6] (individual healthy men A-E (one per line), 1st day, before administration, 300 mg capsules three times per day after meals, 7 days, listed as compound of present invention) was 4.9 mg/dL and 6.4 mg/dL and 5.9 mg/dL and 7.0 mg/dL and 4.7 mg/dL. The “uric acid level in serum, 4th day” value in series [6] (individual healthy men A-E (one per line), 4th day, 300 mg capsules three times per day after meals, 7 days, listed as compound of present invention) was 8.5 mg/dL and 2.9 mg/dL and 2.6 mg/dL and 3.6 mg/dL and 2.8 mg/dL. In series [6] (individual healthy men A-E (one per line), 6th day, 300 mg capsules three times per day after meals, 7 days, listed as compound of present invention), the “uric acid level in serum, 6th day” value is 3.0 mg/dL and 2.6 mg/dL and 2.4 mg/dL and 3.2 mg/dL and 2.5 mg/dL. Moreover, the “uric acid level in serum, 8th day” value in series [6] (individual healthy men A-E (one per line), 8th day, 300 mg capsules three times per day after meals, 7 days, listed as compound of present invention) is 3.2 mg/dL and 3.1 mg/dL and 4.0 mg/dL and 2.7 mg/dL. Moreover, the “uric acid level in serum, 11th day” value in series [6] (individual healthy men A-E (one per line), 11th day, after 7 days of 300 mg capsules three times per day after meals, listed as compound of present invention) is 4.8 mg/dL and 5.6 mg/dL and 7.2 mg/dL and 5.3 mg/dL.
